Test results from US20260294922A1, “Inhibitors of JUN N-Terminal Kinases (JNK1, JNK2, and/or JNK3) and Mitogen-Activated Protein Kinases (MAPK8, MAPK9, and/or MAPK10) and Methods of Using Same” (Baylor College of Medicine, priority 2023, published 2026).
Entries after “also recorded” stand apart in the source; their conditions may differ.

Tests used:
JNK1 (MAPK8) = biological target: T1, JNK1 (MAPK8) (Homo sapiens, UniProt P45983); assay: Eurofins KdSelect, JNK1 (MAPK8); assay type: binding; conditions: Table 2; IC50 nM; read-out: JNK1 (MAPK8), based on Kd select results
T1 construct: purchased Eurofins (KdSelect service)
T1 sequence (P45983 whole entry): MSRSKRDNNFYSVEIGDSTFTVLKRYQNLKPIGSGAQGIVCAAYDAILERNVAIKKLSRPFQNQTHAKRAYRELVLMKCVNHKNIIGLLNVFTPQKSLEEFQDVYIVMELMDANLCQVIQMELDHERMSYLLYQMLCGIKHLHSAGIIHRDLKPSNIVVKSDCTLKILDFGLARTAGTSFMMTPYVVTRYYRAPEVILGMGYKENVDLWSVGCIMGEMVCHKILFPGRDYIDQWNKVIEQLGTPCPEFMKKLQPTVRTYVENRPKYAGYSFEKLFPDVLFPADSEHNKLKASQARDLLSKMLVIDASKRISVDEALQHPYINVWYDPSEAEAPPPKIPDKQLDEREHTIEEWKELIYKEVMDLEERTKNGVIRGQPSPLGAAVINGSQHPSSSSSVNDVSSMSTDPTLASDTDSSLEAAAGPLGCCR

[1] = Phase 1 volunteers / IPF; cited from earlier work
Other MAPK = assay: Eurofins KdSelect, other MAPK; assay type: binding; conditions: Table 2; IC50 nM; read-out: Other MAPK, based on Kd select results
Source text: The next step was to confirm that the compounds that bound to JNK1, JNK2 or JNK3 in a competitive manner, relative to bentamapimod, were inhibitors of the ATP-dependent kinase activity in assays. In many cases, the results have been replicated at ThermoFisher using their SelectScreen technology platform. Based on knowledge about JNK inhibitors, and the results of DEC-Tec selections, a target compound profile was developed (Table 2).
The efficacy and selectivity of BEND and TANZ were used to define a realistic preliminary target compound profile (Table 2) for the next generation of JNK1-3 inhibitors for the treatment of endometriosis.

MEK4 = biological target: T2, MEK4 (Homo sapiens, UniProt P45985); assay: KINOMEscan, MEK4; assay type: binding
T2 construct: purchased ThermoFisher (SelectScreen)
T2 sequence (P45985 1-399): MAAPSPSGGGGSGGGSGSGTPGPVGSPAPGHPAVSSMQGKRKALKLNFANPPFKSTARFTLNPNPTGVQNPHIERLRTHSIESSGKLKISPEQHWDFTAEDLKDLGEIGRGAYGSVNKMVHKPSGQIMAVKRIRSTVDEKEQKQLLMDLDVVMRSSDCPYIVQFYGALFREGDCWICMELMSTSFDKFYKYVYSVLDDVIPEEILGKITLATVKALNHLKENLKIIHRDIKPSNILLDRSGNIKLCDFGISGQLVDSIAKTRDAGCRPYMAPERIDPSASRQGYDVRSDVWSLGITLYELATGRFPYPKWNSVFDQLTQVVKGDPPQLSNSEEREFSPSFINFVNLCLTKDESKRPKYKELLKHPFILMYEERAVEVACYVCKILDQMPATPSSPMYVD

JNK2 (MAPK9) = biological target: T3, JNK2 (MAPK9) (Homo sapiens, UniProt P45984); assay: Eurofins KdSelect, JNK2 (MAPK9); assay type: binding; conditions: Table 2; IC50 nM; read-out: JNK2 (MAPK9), based on Kd select results
T3 construct: purchased Eurofins (KdSelect service)
T3 sequence (P45984 whole entry): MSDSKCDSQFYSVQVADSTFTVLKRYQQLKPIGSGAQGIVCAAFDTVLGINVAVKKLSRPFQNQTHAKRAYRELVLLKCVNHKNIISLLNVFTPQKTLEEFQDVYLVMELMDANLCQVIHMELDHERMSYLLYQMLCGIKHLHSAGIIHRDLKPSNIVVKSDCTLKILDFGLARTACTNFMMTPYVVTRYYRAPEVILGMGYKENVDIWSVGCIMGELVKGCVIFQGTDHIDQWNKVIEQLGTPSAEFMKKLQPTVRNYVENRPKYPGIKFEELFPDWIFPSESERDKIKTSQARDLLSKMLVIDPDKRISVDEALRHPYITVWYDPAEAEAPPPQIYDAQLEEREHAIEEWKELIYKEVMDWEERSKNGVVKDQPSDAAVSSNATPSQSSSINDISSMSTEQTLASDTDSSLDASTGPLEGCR

[2] = tested on: 12Z endometriotic epithelial cells; assay: IL-1β-stimulated pro-inflammatory gene expression (qPCR) in 12Z cells; assay type: cell-based, human; conditions: relative to bentamapimod
Source text: These studies indicate that NanoBRET assays are an innovative technical platform to measure target engagement of CDD JNK inhibitors with the target JNK1, JNK2 or JNK3. As further evidence that JNK inhibitors address disease-relevant endpoints, biological responses of JNK inhibitors are provided herein, as measured in target tissue cellular models. 12Z immortalized endometriotic epithelial cells and patient-derived endometriotic stromal cells have been cultured with reference compound bentamapimod, CDD-2628, and CDD-2728. To exemplify the effects of CDD-2628 and CDD-2728 in the endometrial cell cultures, gene expression was measured using qPCR (expressed as fold-change relative to GAPDH, a housekeeping gene that is not affected by culture treatment effects) that reflect synthesis of inflammatory lipids (PTGS2), transformation of cells to a more migration and invasive potential (MMP-3) and chemoattractant cytokines to recruit pro-inflammatory immune cells (IL-6, IL-8).
In the culture systems employed in FIGS. 12A-12J, FIGS. 13A-13B, FIGS. 14A-14H, FIGS. 15A-15H, and FIGS. 16A-16F, the treatment of cells with IL-1β is used to mimic the peritoneal environment where IL-1β is most frequently measured at higher concentrations in patients with endometriosis (0.1 ng/mL-1 ng/mL) than in unaffected women (<0.01 ng/mL). The use of IL-1β to mimic the pro-inflammatory environment is a common method in cellular assays for endometriosis research. Although the concentrations of IL-1β in these cell cultures are higher than measured in peritoneal fluid, there are multiple other pro-inflammatory cytokines in peritoneal fluid that contribute to the pro-inflammatory environment.
Specifically, 12Z cells were plated at a density of 1×10^5 cells/well in a 12-well tissue culture plate, serum-starved overnight (17-18 h), pre-treated with vehicle (DMSO) or JNK inhibitor for 30 minutes, then stimulated with 10 ng/ml IL-1β in the presence or absence of the JNK inhibitors for 6 hours. After the 6-hour treatment, mRNA was extracted from the cells using the Qiagen RNEasy mini isolation kit and […] of mRNA was reverse transcribed into cDNA using the qScript cDNA Supermix (Quanta Biosciences). cDNA was amplified using SYBR Green Master Mix (Applied Biosystems) with quantitative Real Time PCR (BioRad CFX) using pre-designed and validated primers specific for genes encoding IL6, IL8, PTGS2/COX2, and MMP3 (BioRad). Relative quantification of these specific genes was calculated by the ΔΔCt method, normalizing their abundance relative to the internal housekeeping gene, GAPDH, followed by quantification relative to the vehicle-treated cells. Statistical analyses and visualizations were performed using a One Way ANOVA with a Tukey's multiple comparison post-hoc test on GraphPad Prism version 9.

JNK3 (MAPK10) = biological target: T4, JNK3 (MAPK10) (Homo sapiens, UniProt P53779); assay: Eurofins KdSelect, JNK3 (MAPK10); assay type: binding; conditions: Table 2; IC50 nM; read-out: JNK3 (MAPK10), based on Kd select results
T4 construct: purchased Eurofins (KdSelect service)
T4 sequence (P53779 whole entry): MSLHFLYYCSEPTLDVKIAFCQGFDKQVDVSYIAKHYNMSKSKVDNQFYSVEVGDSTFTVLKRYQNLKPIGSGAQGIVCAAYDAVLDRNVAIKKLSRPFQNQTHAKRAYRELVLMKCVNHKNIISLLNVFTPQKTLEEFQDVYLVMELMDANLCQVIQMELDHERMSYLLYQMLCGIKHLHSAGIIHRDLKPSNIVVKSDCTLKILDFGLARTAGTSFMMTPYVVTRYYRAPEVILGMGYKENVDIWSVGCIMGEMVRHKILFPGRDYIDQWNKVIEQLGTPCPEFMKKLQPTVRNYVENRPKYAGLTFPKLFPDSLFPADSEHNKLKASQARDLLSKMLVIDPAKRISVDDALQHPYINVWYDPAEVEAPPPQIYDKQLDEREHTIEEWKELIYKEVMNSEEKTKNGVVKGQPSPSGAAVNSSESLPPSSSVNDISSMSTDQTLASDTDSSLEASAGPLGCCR

JNK1 [3] = biological target: T5, JNK1 (Homo sapiens, UniProt P45983); assay: Promega NanoBRET intracellular target engagement (tracer K10 displacement), JNK1; assay type: cell-based; conditions: cyano group
T5 sequence (P45983 whole entry): as the sequence (P45983 whole entry) above

JNK2 = JNK2 (Homo sapiens, UniProt P45984); assay: JNK2 kinase (intrinsic ATPase, Kinase-Glo) assay; assay type: biochemical; conditions: Table 3b; read-out: Ki(app) JNK2
Sequence of JNK2 (P45984 whole entry): as the sequence (P45984 whole entry) above

480 kinases = assay: Eurofins KINOMEscan selectivity profile; assay type: binding; conditions: Bentamapimod and Tanzisertib at 1 μM; listed as BEND
JNK1 [4] = biological target: T5, JNK1; assay: JNK1 kinase (intrinsic ATPase, Kinase-Glo) assay; assay type: biochemical; conditions: Table 3b; read-out: Ki(app) JNK1
Outline: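 Full-length construct not stated; kinases hydrolyse ATP without peptide substrate, reaction run 30 or 60 min at 30° C, remaining ATP read by Kinase-Glo luminescence with no-kinase controls. Apparent Ki from normalized fractional activities fitted to modified Morrison tight-binding equation; orthogonal LanthaScreen binding assay gave IC50.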

JNK3 = JNK3 (Homo sapiens, UniProt P53779); assay: JNK3 kinase (intrinsic ATPase, Kinase-Glo) assay; assay type: biochemical; conditions: Table 3b; read-out: Ki(app) JNK3
Sequence of JNK3 (P53779 whole entry): as the sequence (P53779 whole entry) above

N#CC(c1ccnc(OCc2ccc(CN3CCOCC3)cc2)n1)c1nc2ccccc2s1 (centres unmarked) [CDD-939, bentamapimod]
Kd (JNK1 (MAPK8)): 270 nM
clinical safety [1]: deemed safe
Kd (Other MAPK): > 1000 nM
MEK4 inhibition in KINOMEscan (MEK4): does not inhibit MEK4
Kd (JNK2 (MAPK9)): 170 nM
PTGS2 expression [2]: concentration-dependent decreases
IL-6 expression ([2]; listed as Bentamapimod): concentration-dependent decreases
IL-6 expression ([2]; listed as bentamapimod): equally effective
Kd (JNK3 (MAPK10)): 130 nM
interference with NanoBRET readout (JNK1 [3]): interferes with the assay readout
Ki (JNK2): 640 nM
KINOMEscan selectivity / inhibition (480 kinases): JNK1-3 (CMGC family), were inhibited; also recorded: highly selective
Ki (JNK1 [4]): 220 nM
Ki (JNK3): 39 nM
